Values of other authors, collected in patent publication US20060281749A1, “Method for treating glaucoma IV B” (priority 2000, published 2006).

Experiments:
Rhesus monkeys [1] = details: accommodative responses to i.m. pilocarpine
Rhesus monkeys [2] = details: drug treated vs. control eye, baseline and pilocarpine-stimulated conditions

In the case of `Cc1sc[n+](CC(=O)c2ccccc2)c1C.[Cl-]` [4,5-dimethyl-3-(2-oxoethyl-phenethyl) thiazolium chloride], the Improvement in accommodation (Rhesus monkeys [1]) is given as “Improvement in accommodation has been illustrated” and the “improvement in ophthalmologic function (increase in outflow facility)” value (Rhesus monkeys [2]) is given as “improvement has been illustrated”.
